# Assay results from patent publication US12595253B2, “Benzamides of pyrazolylamino-pyrimidinyl derivatives, and compositions and methods thereof” (LYNK PHARMACEUTICALS CO. LTD., priority 2019, dated 2026).
# pIC50: −log10 of the molar value.
# Columns and labels:
# [1] = target: T1, JAK1 (Homo sapiens, UniProt P23458); assay: JAK1 microfluidic kinase assay (Caliper EZ Reader II, FAM labeled peptide substrate); format: biochemical
# T1 construct: purchased Carna Biosciences
# Summary of the method: (§1)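 Microfluidic mobility-shift kinase assay in 50 mM HEPES, 0.01% Brij35, 10 mM MgCl2, 2 mM DTT. IC50 values come from percent-inhibition curves normalised to uninhibited and enzyme-free controls.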
# [2] = target: T2, JAK2V617F (Homo sapiens, UniProt O60674, V617F); assay: JAK2V617F microfluidic kinase assay (Caliper EZ Reader II, FAM labeled peptide substrate); format: biochemical; conditions: JAK2V617F 2.5 nM, 1 mM ATP
# T2 construct: purchased Carna Biosciences
# Summary of the method: as §1
# [3] = Liver microsomes study, Phase I stability (RLM); format: in vitro ADME, rat; conditions: pH 7.4
# Protocol: (§2) Commercially available liver microsomes (MsLM vendor: XENOTECH; RLM, DLM, MkL, HLM vendor: Corning) were used for study the Phase I stability of test articles. […] The reaction was initiated by addition of 80 μL of the NADPH regenerating system to 320 µL of each incubation mixture per time point. […] The 0-minute samples were prepared by addition of an 80 μL aliquot of each incubation mixture to 400 μL quench reagent to precipitate proteins. And then a 20 μL aliquot of the NADPH regenerating system was added. At 10, 30, and 90 minutes, the reaction will be stopped by the addition of cold acetonitrile solution containing tolbutamide and propanolol served as internal standard. The samples taken at all time points were centrifuged at 4000×g for 15 minutes. 80 μL of supernatant are taken into 96-well assay plates pre-added with 160 μL ultrapure water, and then analyzed by LC/MS/MS(Shimadzu LC30AD & API4000/API5000)). Concentrations of test articles, control compounds in the samples were determined by using LC/MS/MS) method. Plotting of the chromatograms and peak area integrations are carried out by Analyst (AB Sciex).
# (§3) In the determination of the in vitro elimination constant, ke, of the control compounds, the analyte/internal standard peak area ratios will be converted to percentage remaining (% Remaining) with the following equation: […]
# (§4) The slope was measured by the natural logarithm of the percentage of the residual compound and time, T½ and CLint were calculated according to the following formulas, V/M was equal to the 1/concentration of protein.
# [4] = Liver microsomes study, Phase I stability (HLM); format: in vitro ADME, human; conditions: pH 7.4
# Protocol: as §2, §3, §4
# [5] = target: T3, JAK2 (Homo sapiens, UniProt O60674); assay: JAK2 microfluidic kinase assay (Caliper EZ Reader II, FAM labeled peptide substrate); format: biochemical
# T3 construct: purchased Carna Biosciences
# Summary of the method: as §1
# [6] = target: T4, TYK2 (Homo sapiens, UniProt P29597); assay: TYK2 microfluidic kinase assay (Caliper EZ Reader II, FAM labeled peptide substrate); format: biochemical
# T4 construct: purchased Carna Biosciences
# Protocol: Compounds were tested against JAK1, JAK2, JAK2V617F and TYK2. Assay Formats: JAK activity was determined in the reaction buffer 50 mM HEPES, 0.01% Brij35, 10 mM MgCl2, 2 mM DTT by a microfluidic assay. The phosphorylation of a FAM labeled peptide substrate was monitored in the Caliper EZ Reader II (Perkin Elmer). The assay condition for each batch of enzyme (Carna Biosciences) was optimized to obtain 10% conversion rate of peptide substrate. The test compounds were dissolved in DMSO to a stock concentration of 10 mM. 3-fold serially diluted compounds with top concentration of 5 μM were pre-incubated with JAK1, JAK2, JAK2V617F or TYK2 at indicated concentrations for 10 min at ambient temperature. The final DMSO concentration of assay mixture was 1%. […] The reaction was stopped by adding 50 mM EDTA. The reaction time for JAK1, JAK2, JAK2V617F and TYK2 was 120 min, 20 min, 30 min and 10 min, respectively. […] And the well without compound but with equivalent DMSO was defined as no inhibition. The percent inhibition was calculated by the following formula. % Inhibition=(Conversionmax−Conversionsample)/(Conversionmax−Conversionmin)*100 • Conversionmax means the conversion rate in the positive well without addition of compound • Conversionmin means the conversion rate in the well without addition of enzyme • Conversionsample means the conversion rate of test compounds The dose-response (percent inhibition) curve was plotted and IC50 values were determined by GraphPad software.
# [7] = IC50 JAK1 (5 nM) (1 m MATP), JAK1 5 nM, 1 mM ATP
# [8] = rat liver microsomes 0.5 mg/mL, 1 μM test article, read-out: RLM Clint
# [9] = human liver microsomes 0.5 mg/mL, 1 μM test article, read-out: HLM Clint
# [10] = IC50 JAK2 ([…]) (1 mM ATP), 1 mM ATP
# [11] = IC50 TYK2 ([…]) (1 mM ATP), TYK2 […], 1 mM ATP
# T1 sequence (P23458 whole entry): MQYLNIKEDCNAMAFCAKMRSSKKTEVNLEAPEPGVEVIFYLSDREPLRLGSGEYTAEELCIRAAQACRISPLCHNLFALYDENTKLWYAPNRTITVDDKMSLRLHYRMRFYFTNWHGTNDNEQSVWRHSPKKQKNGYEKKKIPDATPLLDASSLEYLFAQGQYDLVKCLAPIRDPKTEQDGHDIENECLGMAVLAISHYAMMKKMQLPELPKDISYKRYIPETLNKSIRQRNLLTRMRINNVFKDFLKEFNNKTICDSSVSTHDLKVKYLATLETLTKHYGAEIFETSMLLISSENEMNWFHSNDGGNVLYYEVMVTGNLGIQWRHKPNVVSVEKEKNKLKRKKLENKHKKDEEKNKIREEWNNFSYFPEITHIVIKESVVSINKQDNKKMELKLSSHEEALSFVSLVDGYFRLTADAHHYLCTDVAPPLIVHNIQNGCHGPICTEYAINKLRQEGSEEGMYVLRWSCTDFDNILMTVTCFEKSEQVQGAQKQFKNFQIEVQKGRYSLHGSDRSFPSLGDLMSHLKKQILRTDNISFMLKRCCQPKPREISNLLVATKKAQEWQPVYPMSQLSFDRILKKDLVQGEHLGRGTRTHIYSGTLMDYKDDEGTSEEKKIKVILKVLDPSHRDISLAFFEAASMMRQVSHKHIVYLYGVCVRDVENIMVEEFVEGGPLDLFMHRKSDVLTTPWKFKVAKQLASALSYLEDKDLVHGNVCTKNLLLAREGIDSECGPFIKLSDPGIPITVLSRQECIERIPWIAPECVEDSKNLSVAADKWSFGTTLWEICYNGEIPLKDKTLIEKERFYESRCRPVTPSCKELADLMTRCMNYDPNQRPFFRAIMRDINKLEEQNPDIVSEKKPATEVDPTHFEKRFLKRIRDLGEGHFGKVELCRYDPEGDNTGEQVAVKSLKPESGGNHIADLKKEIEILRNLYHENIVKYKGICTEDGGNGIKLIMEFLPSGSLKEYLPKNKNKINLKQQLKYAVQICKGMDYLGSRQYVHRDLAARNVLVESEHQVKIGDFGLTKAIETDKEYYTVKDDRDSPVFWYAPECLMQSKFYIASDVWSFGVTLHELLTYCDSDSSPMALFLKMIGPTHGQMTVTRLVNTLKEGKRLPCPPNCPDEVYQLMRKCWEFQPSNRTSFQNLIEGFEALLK
# T4 sequence (P29597 whole entry): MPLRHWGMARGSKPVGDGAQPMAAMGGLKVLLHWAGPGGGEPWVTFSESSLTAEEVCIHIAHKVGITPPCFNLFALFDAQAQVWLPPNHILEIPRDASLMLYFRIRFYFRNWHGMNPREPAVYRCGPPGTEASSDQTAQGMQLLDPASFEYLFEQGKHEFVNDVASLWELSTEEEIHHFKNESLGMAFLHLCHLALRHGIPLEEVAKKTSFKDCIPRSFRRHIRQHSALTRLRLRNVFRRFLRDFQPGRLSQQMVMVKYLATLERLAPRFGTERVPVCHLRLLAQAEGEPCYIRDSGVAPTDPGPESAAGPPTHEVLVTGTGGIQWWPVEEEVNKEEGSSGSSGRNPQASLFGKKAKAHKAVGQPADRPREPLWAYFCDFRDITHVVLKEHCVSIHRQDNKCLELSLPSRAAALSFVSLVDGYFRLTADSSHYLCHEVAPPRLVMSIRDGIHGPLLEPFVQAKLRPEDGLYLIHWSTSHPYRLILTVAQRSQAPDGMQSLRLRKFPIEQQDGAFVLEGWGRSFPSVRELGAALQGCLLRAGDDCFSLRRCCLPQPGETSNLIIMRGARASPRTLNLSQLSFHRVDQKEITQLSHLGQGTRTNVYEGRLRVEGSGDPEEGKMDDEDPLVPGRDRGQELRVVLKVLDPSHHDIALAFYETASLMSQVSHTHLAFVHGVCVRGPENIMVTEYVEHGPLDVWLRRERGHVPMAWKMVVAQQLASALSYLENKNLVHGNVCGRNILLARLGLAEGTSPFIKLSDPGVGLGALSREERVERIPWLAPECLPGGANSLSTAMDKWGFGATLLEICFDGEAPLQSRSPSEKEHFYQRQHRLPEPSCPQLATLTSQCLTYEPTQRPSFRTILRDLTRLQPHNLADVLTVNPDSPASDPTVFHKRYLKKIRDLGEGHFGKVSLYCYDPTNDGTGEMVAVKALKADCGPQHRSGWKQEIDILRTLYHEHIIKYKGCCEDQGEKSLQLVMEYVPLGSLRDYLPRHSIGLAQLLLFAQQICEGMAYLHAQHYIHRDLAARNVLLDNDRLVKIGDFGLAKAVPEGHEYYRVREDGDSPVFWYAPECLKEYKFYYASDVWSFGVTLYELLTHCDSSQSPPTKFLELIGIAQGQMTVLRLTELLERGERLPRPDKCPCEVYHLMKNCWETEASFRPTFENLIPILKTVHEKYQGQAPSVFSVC
# T3 sequence (O60674 whole entry): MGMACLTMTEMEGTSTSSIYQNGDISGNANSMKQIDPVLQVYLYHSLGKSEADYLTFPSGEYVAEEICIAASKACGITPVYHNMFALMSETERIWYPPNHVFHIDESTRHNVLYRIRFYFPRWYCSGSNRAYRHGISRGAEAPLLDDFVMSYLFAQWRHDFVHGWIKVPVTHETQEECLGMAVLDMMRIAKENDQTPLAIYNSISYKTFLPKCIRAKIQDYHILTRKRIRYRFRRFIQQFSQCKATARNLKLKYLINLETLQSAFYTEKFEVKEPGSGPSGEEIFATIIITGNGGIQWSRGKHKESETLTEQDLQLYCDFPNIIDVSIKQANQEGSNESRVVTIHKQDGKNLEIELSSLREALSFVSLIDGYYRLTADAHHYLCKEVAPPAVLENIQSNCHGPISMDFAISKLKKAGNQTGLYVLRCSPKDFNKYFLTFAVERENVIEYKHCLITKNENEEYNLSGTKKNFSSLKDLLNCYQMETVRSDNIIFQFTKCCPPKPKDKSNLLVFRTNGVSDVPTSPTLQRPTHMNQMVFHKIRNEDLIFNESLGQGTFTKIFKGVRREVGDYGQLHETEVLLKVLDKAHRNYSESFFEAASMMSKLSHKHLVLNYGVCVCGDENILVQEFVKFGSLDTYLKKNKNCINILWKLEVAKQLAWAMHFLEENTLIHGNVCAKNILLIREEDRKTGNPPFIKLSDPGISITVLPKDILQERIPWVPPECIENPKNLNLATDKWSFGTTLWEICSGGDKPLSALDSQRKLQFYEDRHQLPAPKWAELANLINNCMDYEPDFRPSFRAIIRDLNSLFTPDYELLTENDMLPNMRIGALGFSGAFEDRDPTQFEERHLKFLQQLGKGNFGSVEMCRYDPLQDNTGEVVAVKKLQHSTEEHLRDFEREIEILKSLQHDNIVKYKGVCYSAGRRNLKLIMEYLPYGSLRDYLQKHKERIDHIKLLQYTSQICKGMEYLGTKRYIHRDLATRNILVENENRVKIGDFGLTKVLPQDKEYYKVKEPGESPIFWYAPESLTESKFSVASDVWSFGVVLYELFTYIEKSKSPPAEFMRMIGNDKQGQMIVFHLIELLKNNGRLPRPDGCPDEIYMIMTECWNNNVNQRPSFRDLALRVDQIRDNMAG
# T2 sequence (O60674 whole entry V617F): as the sequence (O60674 whole entry) above, with V617F counted along it
"pIC50 [1, 7]",pIC50 [2],"microsomal CLint at 1 μM [3, 8] [µL/min/mg]","microsomal CLint at 1 μM [4, 9] [µL/min/mg]","pIC50 [5, 10]","pIC50 [6, 11]","pIC50 ([1]; IC50 JAK1 (10 nM) (Km ATP), JAK1 10 nM, Km ATP)","pIC50 ([5]; IC50 JAK2 ([…]) (Km ATP), Km ATP)","pIC50 ([6]; IC50 TYK2 (10 nM) (Km ATP), TYK2 10 nM, Km ATP)",Structure (SMILES),"microsomal CLint at 1 μM ([3]; rat, microsomes) [µL/min/mg]","microsomal CLint at 1 μM ([4]; human, microsomes) [µL/min/mg]"
7.63,8.38,80.8,56.4,,,,,,"Cc1cnc(Nc2cnn(C3CCN(C(=O)C4CC4)CC3)c2)nc1-c1ccc(C(=O)NCC#N)nc1 [Example 150, N-(cyanomethyl)-5-(2-((1-(1-(cyclopropanecarbonyl)piperidin-4-yl)-1H-pyrazol-4-yl)amino)-5-methylpyrimidin-4-yl)picolinamide]",,
7.63,8.88,,113,,,,,,"C[C@@H](C#N)NC(=O)c1ccc(-c2nc(Nc3cnn(C4CCN(C(=O)C(C)(C)C)CC4)c3)ncc2Cl)cc1 [Example 99, (S)-4-(5-Chloro-2-((1-(1-pivaloylpiperidin-4-yl)-1H-pyrazol-4-yl)amino)pyrimidin-4-yl)-N-(1-cyanoethyl)benzamide]",,
7.40,6.88,47.5,16.2,,,,,,"N#CCNC(=O)c1ccc(-c2nc(Nc3cnn(C4CC4)c3)ncc2Cl)cn1 [Example 120, 5-(5-Chloro-2-((1-cyclopropyl-1H-pyrazol-4-yl)amino)pyrimidin-4-yl)-N-(cyanomethyl)picolinamide]",,
8.06,9.29,17.1,33.9,,,,,,"Cc1cnc(Nc2cnn(C3CCN(C(=O)C(C)(C)O)CC3)c2)nc1-c1ccc(C(=O)NCC#N)cc1 [Example 51, N-(cyanomethyl)-4-(2-((1-(1-(2-hydroxy-2-methylpropanoyl)piperidin-4-yl)-1H-pyrazol-4-yl)amino)-5-methylpyrimidin-4-yl)benzamide]",,
7.87,7.36,,38.7,8.56,,,,,"COCCn1cc(Nc2ncc(Cl)c(-c3ccc(C(=O)N[C@@H](C)C#N)cc3)n2)cn1 [Example 177, (S)-4-(5-chloro-2-((1-(2-methoxyethyl)-1H-pyrazol-4-yl)amino)pyrimidin-4-yl)-N-(1-cyanoethyl)benzamide]",,
7.64,,,10.6,7.15,6.67,,,,"Cc1cnc(Nc2cnn(C3CCN(C)CC3)c2)nc1-c1ccc(C(=O)N[C@H](C)C#N)cc1 [Example 62, (R)—N-(1-cyanoethyl)-4-(5-methyl-2-((1-(1-methylpiperidin-4-yl)-1H-pyrazol-4-yl)amino)pyrimidin-4-yl)benzamide]",,
7.42,7.34,47.2,30,,,,,,"N#CC1(CNC(=O)c2ccc(-c3nc(Nc4cnn(C5CCOCC5)c4)ncc3Cl)cc2)CC1 [Example 78, 4-(5-Chloro-2-((1-(tetrahydro-2H-pyran-4-yl)-1H-pyrazol-4-yl)amino)pyrimidin-4-yl)-N-((1-cyanocyclopropyl)methyl)benzamide]",,
7.75,8.89,,147,,,,,,"CC(C)(C)C(=O)N1CCC(n2cc(Nc3ncc(Cl)c(-c4ccc(C(=O)NCC#N)cc4)n3)cn2)CC1 [Example 98, 4-(5-Chloro-2-((1-(1-pivaloylpiperidin-4-yl)-1H-pyrazol-4-yl)amino)pyrimidin-4-yl)-N-(cyanomethyl)benzamide]",,
7.81,,40.8,24.6,7.51,,,,,"N#CC1(CNC(=O)c2ccc(-c3nc(Nc4cnn(C5CC5)c4)ncc3Cl)cc2)CC1 [Example 60, 4-(5-Chloro-2-((1-cyclopropyl-1H-pyrazol-4-yl)amino)pyrimidin-4-yl)-N-((1-cyanocyclopropyl)methyl)benzamide]",,
6.36,,8.5,10.7,6.16,,,,,"C[C@@H](C#N)NC(=O)c1ccc(-c2nc(Nc3cnn(C4CC4)c3)ncc2C(F)F)cc1F [Example 138, (S)—N-(1-cyanoethyl)-4-(2-((1-cyclopropyl-1H-pyrazol-4-yl)amino)-5-(difluoromethyl)pyrimidin-4-yl)-2-fluorobenzamide]",,
8.29,7.48,,,7.98,7.50,,,,"Cc1cnc(Nc2cnn(C3CC3)c2)nc1-c1ccc(C(=O)N[C@@H](C)C#N)cc1 [Example 94, (S)—N-(1-cyanoethyl)-4-(2-((1-cyclopropyl-1H-pyrazol-4-yl)amino)-5-methylpyrimidin-4-yl)benzamide]",,
7.89,8.05,,22.6,,,,,,"Cc1cnc(Nc2cnn(C3CCOCC3)c2)nc1-c1ccc(C(=O)N[C@@H](C)C(F)(F)F)cc1 [Example 75, (S)-4-(5-Methyl-2-((1-(tetrahydro-2H-pyran-4-yl)-1H-pyrazol-4-yl)amino)pyrimidin-4-yl)-N-(1,1,1-trifluoropropan-2-yl)benzamide]",,
7.90,,93.6,204,,,,,,"Cc1cnc(Nc2cnn(C3CCN(C(=O)C45CC(C4)C5)CC3)c2)nc1-c1ccc(C(=O)NCC#N)cc1 [Example 114, 4-(2-((1-(1-(Bicyclo[1.1.1]pentane-1-carbonyl)piperidin-4-yl)-1H-pyrazol-4-yl)amino)-5-methylpyrimidin-4-yl)-N-(cyanomethyl)benzamide]",,
8.26,7.27,,,7.60,7.37,,,,"C[C@@H](C#N)NC(=O)c1ccc(-c2nc(Nc3cnn(CC#N)c3)ncc2Cl)cc1 [Example 46, (S)-4-(5-Chloro-2-((1-(cyanomethyl)-1H-pyrazol-4-yl)amino)pyrimidin-4-yl)-N-(1-cyanoethyl)benzamide]",,
8.18,8.29,,19.5,9.27,7.10,,,,"CN1CCC(n2cc(Nc3ncc(Cl)c(-c4ccc(C(=O)NCC#N)cc4)n3)cn2)CC1 [Example 44, 4-(5-Chloro-2-((1-(1-methylpiperidin-4-yl)-1H-pyrazol-4-yl)amino)pyrimidin-4-yl)-N-(cyanomethyl)benzamide]",,
7.70,7.17,26.1,,7.51,7.34,,,,"Cc1cnc(Nc2cnn(C3CC3)c2)nc1-c1ccc(C(=O)NCC#N)nc1 [Example 83, N-(cyanomethyl)-5-(2-((1-cyclopropyl-1H-pyrazol-4-yl)amino)-5-methylpyrimidin-4-yl)picolinamide]",,
7.96,8.45,,,> 9.60,7.76,8.65,> 9.60,9.29,"Cc1cnc(Nc2cnn(C3CCN(C(=O)C(C)(C)C)CC3)c2)nc1-c1ccc(C(=O)NCC#N)cc1 [Example 21, N-(Cyanomethyl)-4-(5-methyl-2-((1-(1-pivaloylpiperidin-4-yl)-1H-pyrazol-4-yl)amino)pyrimidin-4-yl)benzamide]",,

Structure (SMILES),"pIC50 [1, 7]",pIC50 [2],"microsomal CLint at 1 μM [3, 8] [µL/min/mg]","microsomal CLint at 1 μM [4, 9] [µL/min/mg]","pIC50 [5, 10]","pIC50 [6, 11]","pIC50 ([1]; IC50 JAK1 (10 nM) (Km ATP), JAK1 10 nM, Km ATP)","pIC50 ([5]; IC50 JAK2 ([…]) (Km ATP), Km ATP)","pIC50 ([6]; IC50 TYK2 (10 nM) (Km ATP), TYK2 10 nM, Km ATP)","microsomal CLint at 1 μM ([3]; rat, microsomes) [µL/min/mg]","microsomal CLint at 1 μM ([4]; human, microsomes) [µL/min/mg]"
"Cc1cnc(Nc2cnn(C3CC4CCC(C3)N4CC(F)(F)F)c2)nc1-c1ccc(C(=O)NCC#N)cc1 [Example 134, N-(cyanomethyl)-4-(5-methyl-2-((1-((1R,3s,5S)-8-(2,2,2-trifluoroethyl)-8-azabicyclo[3.2.1]octan-3-yl)-1H-pyrazol-4-yl)amino)pyrimidin-4-yl)benzamide]",7.65,,,,7.97,,,,,1950,1190
